# Measured values reported in patent publication US20260070945A1, “MACROCYCLIC IMMUNOMODULATORS” (Bristol-Myers Squibb Company, priority 2022, published 2026).
# Where two headings read alike, the source gives them in different places. *1 amine or outer side, *2 acyl side, *3 side chain or, on linkers, in order; H or OH if unused. Where a SMILES comes first, the peptide text is derived from it. Bridges are numbered along the chain shown (N, C = ends). [ ]: non-standard residue; d: D form. The star is where a group is joined. Phe(3-CF3) = N[C@@H](Cc1cccc(C(F)(F)F)c1)C(=O)O; Ala(morpholin-4-yl) = N[C@@H](CN1CCOCC1)C(=O)O; Phe(4-COOH) = N[C@@H](Cc1ccc(C(=O)O)cc1)C(=O)O; Bip = N[C@@H](Cc1ccc(-c2ccccc2)cc1)C(=O)O; Phe(3-Me) = Cc1cccc(C[C@H](N)C(=O)O)c1; γGlu = O=C(O)[C@H](CCC(=O)[*:2])N[*:1]; NH(CH2)12COOH = O=C(O)CCCCCCCCCCCCN*; Val(3-OH) = CC(C)(O)[C@H](N)C(=O)O; Cha = N[C@@H](CC1CCCCC1)C(=O)O; Cit = NC(=O)NCCC[C@H](N)C(=O)O; Carboxymethyl = O=C(O)C*; NMeA = CN[C@@H](C)C(=O)O; Aun = NCCCCCCCCCCC(=O)O; Dab = NCC[C@H](N)C(=O)O; AEEA = NCCOCCOCC(=O)O
# Target: T1, PD-1/PD-L1 interaction (PE-labeled human PD-L1-Ig binding to Jurkat cell line over-expressing human PD-1) (Homo sapiens, UniProt Q15116)
# T1 construct: expressed in transfected cells; host or cells: Jurkat
# T1 sequence (Q15116 25-288): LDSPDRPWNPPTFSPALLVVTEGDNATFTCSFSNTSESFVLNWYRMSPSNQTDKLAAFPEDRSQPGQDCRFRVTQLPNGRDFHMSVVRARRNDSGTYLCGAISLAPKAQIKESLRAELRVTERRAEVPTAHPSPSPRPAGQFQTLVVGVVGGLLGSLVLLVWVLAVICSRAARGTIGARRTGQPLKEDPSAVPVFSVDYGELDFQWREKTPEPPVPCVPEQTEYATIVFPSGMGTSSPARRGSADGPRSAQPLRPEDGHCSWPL
# Test: Jurkat-PD-1 Cell Binding High-Content Screening Assay (CBA)
# Method in brief: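 Jurkat-hPD-1 cells (8×10^3/well) in DMEM with 10% fetal calf serum were preincubated with compound for 2 h at 37 °C. PE-labeled PD-L1-Ig was then added at 20 nM final for 1 h. Cells were fixed in paraformaldehyde with Hoechst 33342, washed and imaged by high-content imaging.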
# [1] = Jurkat-hPD-1 cells, PE-labeled PD-L1-Ig 20 nM final; read-out: Jurkat HPD1 PDL1 IC50
SMILES,IC50 [1] [µM],"IC50 (PE-labeled PD-L1-Ig 20 nM final, Jurkat-hPD-1 cells; read-out: Jurkat HPD1 PDL1 IC50) [µM]"
COC[C@@H]1NC(=O)CSC[C@@H](C(=O)N[C@@H](CCN)C(=O)NCCOCCOCC(=O)N[C@@H](CCC(=O)NCCOCCOCC(=O)NCCCCCCCCCCCCC(=O)O)C(=O)O)NC(=O)[C@H](CO)NC(=O)[C@H](C(C)(C)O)NC(=O)[C@H](CC2CCCCC2)NC(=O)[C@H](CCN)NC(=O)[C@@H](CC(C)C)NC(=O)[C@H](C)N(C)C(=O)[C@H](Cc2ccc(C(=O)O)cc2)NC(=O)[C@H](Cc2ccc(-c3ccccc3)cc2)NC(=O)[C@H](Cc2ccc(C(=O)O)cc2)NC(=O)[C@H](Cc2cccc(C(F)(F)F)c2)NC(=O)[C@H](CC(=O)O)NC(=O)[C@H](Cc2ccc(OCC(=O)O)cc2)NC1=O [Example 1170] ({CH2CO}-S(Me)Y(Carboxymethyl)D[Phe(3-CF3)][Phe(4-COOH)][Bip][Phe(4-COOH)][NMeA][dL][Dab][Cha][Val(3-OH)]SC[Dab][AEEA][γGlu][AEEA]-{NH(CH2)12COOH}; thioether N-14),0.054,
CC[C@H](C)[C@@H]1NC(=O)[C@H](Cc2cccc(C)c2)NC(=O)[C@H](CC(=O)O)NC(=O)[C@H](Cc2ccc(C(=O)O)cc2)NC(=O)[C@H](CCN)NC(=O)CSC[C@@H](C(=O)N[C@@H](CCN)C(=O)NCCCCCCCCCCC(=O)O)NC(=O)[C@H](CO)NC(=O)[C@H](C(C)(C)O)NC(=O)[C@H](CC2CCCCC2)NC(=O)[C@H](CCN)NC(=O)[C@@H](CC(C)C)NC(=O)[C@H](C)N(C)C(=O)[C@H](Cc2ccc(OCC(=O)O)cc2)NC(=O)[C@H](Cc2ccc(-c3ccccc3)cc2)NC1=O [Example 1299] ({CH2CO}-[Dab][Phe(4-COOH)]D[Phe(3-Me)]I[Bip]Y(Carboxymethyl)[NMeA][dL][Dab][Cha][Val(3-OH)]SC[Dab][Aun]-OH; thioether N-14),0.0116,
CC(C)C[C@H]1NC(=O)[C@H](C)N(C)C(=O)[C@H](CCCNC(N)=O)NC(=O)[C@H](Cc2ccc(-c3ccccc3)cc2)NC(=O)[C@H](Cc2ccc(C(=O)O)cc2)NC(=O)[C@H](Cc2cccc(C(F)(F)F)c2)NC(=O)[C@H](CC(=O)O)NC(=O)[C@H](Cc2ccc(OCC(=O)O)cc2)NC(=O)[C@H](CN2CCOCC2)NC(=O)CSC[C@@H](C(=O)N[C@@H](CCN)C(=O)NCCCCCCCCCCCCC(=O)O)NC(=O)[C@H](CC(=O)O)NC(=O)[C@H](C(C)(C)O)NC(=O)[C@H](CC2CCCCC2)NC(=O)[C@H](CCN)NC1=O [Example 1154] ({CH2CO}-[Ala(morpholin-4-yl)]Y(Carboxymethyl)D[Phe(3-CF3)][Phe(4-COOH)][Bip][Cit][NMeA][dL][Dab][Cha][Val(3-OH)]DC[Dab]-{NH(CH2)12COOH}; thioether N-14),0.0156,
CC(=O)NCCCC[C@@H]1NC(=O)[C@H](C(C)(C)O)NC(=O)[C@H](CC2CCCCC2)NC(=O)[C@H](CCN)NC(=O)[C@@H](CC(C)C)NC(=O)[C@H](C)N(C)C(=O)[C@H](CCC(N)=O)NC(=O)[C@H](Cc2ccc(-c3ccccc3)cc2)NC(=O)[C@H](Cc2ccc(C(=O)O)cc2)NC(=O)[C@H](Cc2cccc(C(F)(F)F)c2)NC(=O)[C@H](CC(=O)O)NC(=O)[C@H](Cc2ccc(OCC(=O)O)cc2)NC(=O)[C@H](Cc2ccc(OCC(=O)O)cc2)NC(=O)CSC[C@@H](C(=O)N[C@@H](CCN)C(=O)NCCOCCOCC(=O)NCCCCCCCCCCCCC(=O)O)NC1=O [Example 2617] ({CH2CO}-Y(Carboxymethyl)Y(Carboxymethyl)D[Phe(3-CF3)][Phe(4-COOH)][Bip]Q[NMeA][dL][Dab][Cha][Val(3-OH)]K(Ac)C[Dab][AEEA]-{NH(CH2)12COOH}; thioether N-14),,0.0201
Cc1cccc(C[C@@H]2NC(=O)[C@H](CC(=O)O)NC(=O)[C@H](Cc3ccc(OCC(=O)O)cc3)NC(=O)[C@H](Cc3ccc(OCC(=O)O)cc3)NC(=O)CSC[C@@H](C(=O)N[C@@H](CCN)C(=O)NCCCCCCCCCCC(=O)O)NC(=O)[C@H](CO)NC(=O)[C@H](C(C)C)NC(=O)[C@H](CC3CCCCC3)NC(=O)[C@H](CCN)NC(=O)[C@@H](CC(C)C)NC(=O)[C@H](C)N(C)C(=O)[C@H](Cc3ccc(OCC(=O)O)cc3)NC(=O)[C@H](Cc3ccc(-c4ccccc4)cc3)NC(=O)[C@H](C(C)C)NC2=O)c1 [Example 1265] ({CH2CO}-Y(Carboxymethyl)Y(Carboxymethyl)D[Phe(3-Me)]V[Bip]Y(Carboxymethyl)[NMeA][dL][Dab][Cha]VSC[Dab][Aun]-OH; thioether N-14),0.0441,
